Data on one molecule can be found in patent EP0645397B1, “Glutathione analogs and paralog panels comprising glutathione mimics” (TERRAPIN TECHNOLOGIES, INC., priority 1993, dated 1998).

Assay [1] concerns glyoxalase I. The assay can be described thus: SDS/PAGE detection of glyoxalase I-like protein in sorbent eluates. Type of assay: binding, rat. Conditions: EDTA in buffers. The source says: A protein with a molecular migration similar to that of another GSH-dependent enzyme, glyoxalase I, was also present in the eluates from γE-C(Bz)-A and γE-C(Bz)-βA, but was not detected in eluates from the other sorbents. […] Glyoxalase I is known to be a metal-dependent enzyme, and the presence of EDTA in the buffers may have interfered with binding activity.

Assay [2] concerns rat liver cytosolic GST isoenzymes. The assay can be described thus: Affinity chromatography of rat liver cytosol on GSH and GSH analog sorbents; recovery of protein and CDNB-conjugating activity in elution fractions. Type of assay: binding. As to the method:
0.66 g epoxy Sepharose™ 6B (Pharmacia) was swollen with 10 mL water for 15 min, then rinsed twice with 10 mL water in a 15 mL sintered glass funnel. A solution of 100-500 mg of the crude tripeptide in 5 mL ethanol and 10 mL water was adjusted to pH 11-12 with 6 N NaOH in a 20 mL scintillation vial with a polycone cap. The rinsed resin was added, and gently agitated overnight in a 37° water bath. The pH was checked the next day and brought back to pH 11-12 with 6 N NaOH if needed. After another day of agitation, the resin was filtered (the peptide-containing liquid was acidified with conc HCl, evaporated and saved) and rinsed three times with 10 mL water. The unfunctionalized epoxy groups were capped by soaking the resin in 10 mL of water which contained about 0.1 mL ethanolamine for 1 hr. The resin was then rinsed three times with 10 mL water, and a sample was removed for analysis. The remainder was rinsed with 10 mL of 0.1 M NaOAc, 0.5 M NaCl pH 4.0 buffer, followed by 10 mL of 0.1 M tris chloride, 0.5 M NaCl pH 8.0 buffer. The resin was stored at 4°C in this pH 8 buffer.
The recoveries of protein and GST (CDNB-conjugating) activity in the elution fractions after affinity purification of rat liver cytosolic GST isoenzymes on various compounds of the invention are shown in Table 3.

Assay [3] relates to rat cytosolic GST isoenzymes. The assay can be described thus: Isoenzyme composition of sorbent eluates by SDS/PAGE and reverse-phase HPLC. Type of assay: binding. The protocol:
Fractions eluted from the sorbents listed in Table 3 were analyzed by SDS/PAGE followed by silver staining. S-L-GSH and HxGSH sorbents bound proteins which corresponded to the previously observed electrophoretic band pattern of rat liver GST subunits. […] As the π-class GST 7-7 is found at low levels in rat liver cytosol, other rat tissues known to express higher levels of this isoenzyme also were tested.
Independent confirmation of this conclusion, at higher resolution, was provided by reverse-phase HPLC analyses of the GST isoenzymes in the eluates from different sorbents. […] Subunits 3, 4 and 6 are µ-class isoenzymes, subunits 1a, 1b, 2 and 8 are α-class isoenzymes, and subunit 7 is the π-class isoenzyme.

Consider `N[C@@H](CCC(=O)N[C@@H](CSCc1ccccc1)C(=O)NCCC(=O)O)C(=O)O` [γE-C(Bz)-βA, γ-glutamyl S-benzyl cysteinyl β-alanine], for which the “protein with a molecular migration similar to glyoxalase I in eluate” value in assay [1] is reported as “present”. In addition, the Protein recovery in assay [2] (Table 4, rat cytosolic GST isoenzymes) amounted to 1.0%. For the same molecule, the “protein recovery seen with HxGSH” value in assay [2] (relative to HxGSH sorbent) is reported as 33%. Further, the CDNB-conjugating activities in assay [2] (relative to HxGSH sorbent, after correcting for the inhibitory properties of the eluting ligand) is given as 52%. Further, the “SDS/PAGE band pattern of eluate” value in assay [3] (rat liver cytosol, silver staining) is recorded as “highly enriched band for presumptive µ-class isoenzymes”. Also, the isoenzymes bound result in assay [3] (reverse-phase HPLC of eluates) is “selectively bound the µ-class isoenzymes 3 and 4”.
